# In PMC3125149, “SCYX-7158, an Orally-Active Benzoxaborole for the Treatment of Stage 2 Human African Trypanosomiasis” (PLoS Neglected Tropical Diseases, 2011):
# Where two headings read alike, the source gives them in different places.
# Legend:
# [1] = test system: T. b. brucei EATRO 110 strain; assay: Efficacy in the mouse model for acute HAT; assay type: in vivo
# Method: For efficacy studies against acute infections, groups of 3–5 female Swiss Webster mice (Ace Animals, Boyertown, PA) were injected intraperitoneally (i.p.) with freshly drawn infected rat blood containing 2.5×10^5 trypanosomes (T. b. brucei EATRO 110 strain). The infection was allowed to progress for 24 h before treatment. Test compound was then given daily by bolus i.p. injection or oral gavage. Oxaborole compounds were formulated in 2% ethanol/5% dextrose and were given at a dose volume of 200 µL (containing 1.25 to 50 mg/kg) for a 25 g animal. Animals were monitored daily for signs of compound toxicity and clinical signs of trypanosomiasis for a period of 30 days. Mice were checked for parasitemia once per week by microscopic examination of smears prepared from the tail vein blood of animals. Animals remaining parasite free for more than 30 days beyond the end of the treatment period were considered cured. Control untreated animals typically succumbed to the infection within 4–5 days following i.p. inoculation with parasites.
# [2] = molecular target: T1, MDCKII-hMDR1 cells (P-glycoprotein) (Homo sapiens, UniProt P08183); assay: MDCKII-hMDR1 monolayer permeability and P-gp efflux; assay type: in vitro ADME
# T1 construct: expressed in transfected cells; host or cells: MDCKII (canine kidney) cells, provided by P. Borst
# Method: (§1) T. b. brucei was cultured in complete HMI-9 medium,[20] which contains 10% fetal bovine serum (FBS) (Invitrogen, Carlsbad, CA), 10% Serum Plus medium (SAFC Biosciences, Lenexa, KS), and 100 units/mL penicillin and 0.1 mg/mL streptomycin. The trypanosomes were propagated in T-25 vented cap flasks (Corning Inc., Lowell, MA) at 37°C and 5% CO2 with humidity. To ensure log growth phase, trypanosomes were sub-cultured at appropriate dilutions (typically 1∶100) every 2–3 days in fresh HMI-9 medium. T. b. rhodesiense parasites were grown in MEM medium with Earle's salts supplemented with 15% horse serum. For T. b. gambiense, the MEM medium was supplemented with 5% heat-inactivated fetal calf serum (FCS) and 15% human serum.[21] L929 mouse fibroblast cells (ATCC CCL1, American Type Culture Collection, Rockville, MD) were used to determine parasite versus mammalian cell selectivity. Cells were cultured in Dulbecco's Modified Eagle Medium (DMEM), supplemented with 10% FBS, L-glutamine and 100 units/mL penicillin and 0.1 mg/mL streptomycin. MDCKII-hMDR1 cells were generously provided by P. Borst at the Netherlands Kancer Institute. Cells were cultured in DMEM with Glutamax, 10% (v/v) FBS, and 100 units/mL penicillin and 0.1 mg/mL streptomycin. Cell monolayers were fed with cell culture media 24 h after seeding and used for permeability studies 3 days later.
# (§2) The propensity of the compound to cross the blood-brain barrier was examined using an in vitro MDCKII-hMDR1 transwell assay.[24] MDCKII-hMDR1 cells were seeded at density of 3×10^5 cells per well onto microporous polycarbonate membranes in 12 well Costar Transwell plates (Corning Inc., Lowell, MA). The cells were used for permeability studies 3 days later. Trans-epithelial resistance (TEER) was measured for each insert to ensure the integrity of the monolayer (acceptable TEER >50 Ωcm^2).
# (§3) The permeability and propensity for P-gp-mediated efflux was evaluated by adding each compound at a concentration of 3 µM, in the presence or absence of 2 µM GF120918, to the apical compartment. Competency of the P-gp efflux transporter was confirmed by assay of propranolol (non-substrate) and amprenavir (substrate). Cell monolayers were incubated in triplicate with shaking (160 rpm) at 37°C in a 5% CO2-enriched humidified atmosphere for 1 h. Samples were removed from the apical and basolateral compartments after incubation and assayed for test compound concentrations by LC-MS/MS. Values for mass balance, PappA→B, PappA→B+GF918, and absorption quotient (AQ) were calculated for each compound.[25], [26], [27] Acceptance criterion for mass balance was 70–120%.
# [3] = molecular target: T2, P-glycoprotein (human MDR1) (Homo sapiens, UniProt P08183); assay: as above; assay type: in vitro ADME; settings: dog
# T2 construct: expressed in transfected cells; host or cells: MDCKII (canine kidney) cells, provided by P. Borst
# Method: as §1, §2, §3
# >100 biochemical targets = assay: Array of in vitro receptor binding and enzyme inhibition assays; settings: test concentration 10 µM
# T2 sequence (P08183 whole entry): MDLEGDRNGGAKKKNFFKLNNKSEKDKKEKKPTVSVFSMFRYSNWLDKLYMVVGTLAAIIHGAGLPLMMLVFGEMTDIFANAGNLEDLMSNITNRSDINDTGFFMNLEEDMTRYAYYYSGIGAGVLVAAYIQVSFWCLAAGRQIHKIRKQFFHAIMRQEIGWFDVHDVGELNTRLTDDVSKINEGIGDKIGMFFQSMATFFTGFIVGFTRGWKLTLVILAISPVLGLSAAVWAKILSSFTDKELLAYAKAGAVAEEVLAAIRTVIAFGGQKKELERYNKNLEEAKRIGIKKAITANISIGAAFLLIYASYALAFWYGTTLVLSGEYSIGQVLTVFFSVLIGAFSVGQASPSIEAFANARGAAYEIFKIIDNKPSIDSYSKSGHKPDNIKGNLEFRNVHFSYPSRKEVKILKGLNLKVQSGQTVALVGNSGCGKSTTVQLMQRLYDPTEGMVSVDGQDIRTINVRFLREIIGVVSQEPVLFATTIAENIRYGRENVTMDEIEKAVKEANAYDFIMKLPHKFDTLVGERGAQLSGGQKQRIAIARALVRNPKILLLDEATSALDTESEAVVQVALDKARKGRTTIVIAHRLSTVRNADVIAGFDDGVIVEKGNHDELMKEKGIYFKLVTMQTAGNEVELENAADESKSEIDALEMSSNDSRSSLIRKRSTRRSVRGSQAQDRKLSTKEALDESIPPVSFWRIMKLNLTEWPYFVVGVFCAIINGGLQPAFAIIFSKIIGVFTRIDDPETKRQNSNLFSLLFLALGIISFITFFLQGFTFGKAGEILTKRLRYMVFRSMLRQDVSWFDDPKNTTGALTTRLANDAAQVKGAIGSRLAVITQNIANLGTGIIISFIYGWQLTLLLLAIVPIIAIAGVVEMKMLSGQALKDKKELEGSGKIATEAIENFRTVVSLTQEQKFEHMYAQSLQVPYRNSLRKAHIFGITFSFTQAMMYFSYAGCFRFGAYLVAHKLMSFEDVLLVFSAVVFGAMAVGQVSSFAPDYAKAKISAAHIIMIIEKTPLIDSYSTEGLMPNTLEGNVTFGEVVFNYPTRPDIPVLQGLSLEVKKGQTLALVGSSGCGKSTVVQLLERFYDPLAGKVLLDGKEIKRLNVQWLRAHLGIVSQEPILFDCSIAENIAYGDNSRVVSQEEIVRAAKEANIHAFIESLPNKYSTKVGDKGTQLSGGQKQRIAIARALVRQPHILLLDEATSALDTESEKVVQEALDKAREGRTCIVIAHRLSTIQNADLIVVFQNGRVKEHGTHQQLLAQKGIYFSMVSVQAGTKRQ
# T1 sequence (P08183 whole entry): as above
compound,measurement,setting,value
CC1(C)OB(O)c2cc(NC(=O)c3ccc(F)cc3C(F)(F)F)ccc21 [SCYX-7158],% Cured,"[1]; 1.25 mg/kg BID, 4 days, PO",0%
same,Avg. Days Parasite-Free,"[1]; 1.25 mg/kg BID, 4 days, PO",8 days
same,Cured/Total,"[1]; 1.25 mg/kg BID, 4 days, PO",0/5
same,% Cured,"[1]; 1.25 mg/kg QD, 4 days, PO",0%
same,Avg. Days Parasite-Free,"[1]; 1.25 mg/kg QD, 4 days, PO",4.4 days
same,Cured/Total,"[1]; 1.25 mg/kg QD, 4 days, PO",0/5
same,% Cured,"[1]; 2.5 mg/kg BID, 4 days, PO",100%
same,Avg. Days Parasite-Free,"[1]; 2.5 mg/kg BID, 4 days, PO",>30 days
same,Cured/Total,"[1]; 2.5 mg/kg BID, 4 days, PO",5/5
same,% Cured,"[1]; 2.5 mg/kg QD, 4 days, PO",0%
same,Avg. Days Parasite-Free,"[1]; 2.5 mg/kg QD, 4 days, PO",8.4 days
same,Cured/Total,"[1]; 2.5 mg/kg QD, 4 days, PO",0/5
same,% Cured,"[1]; 5 mg/kg BID, 4 days, PO",100%
same,Avg. Days Parasite-Free,"[1]; 5 mg/kg BID, 4 days, PO",>30 days
same,Cured/Total,"[1]; 5 mg/kg BID, 4 days, PO",5/5
same,% Cured,"[1]; 5 mg/kg QD, 1 day, IP",0%
same,Avg. Days Parasite-Free,"[1]; 5 mg/kg QD, 1 day, IP",6 days
same,Cured/Total,"[1]; 5 mg/kg QD, 1 day, IP",0/3
same,% Cured,"[1]; 5 mg/kg QD, 4 days, PO",100%
same,Avg. Days Parasite-Free,"[1]; 5 mg/kg QD, 4 days, PO",>30 days
same,Cured/Total,"[1]; 5 mg/kg QD, 4 days, PO",5/5
same,% Cured,"[1]; 10 mg/kg BID, 4 days, PO",100%
same,Avg. Days Parasite-Free,"[1]; 10 mg/kg BID, 4 days, PO",>30 days
same,Cured/Total,"[1]; 10 mg/kg BID, 4 days, PO",5/5
same,% Cured,"[1]; 10 mg/kg QD, 1 day, IP",0%
same,Avg. Days Parasite-Free,"[1]; 10 mg/kg QD, 1 day, IP",9.3 days
same,Cured/Total,"[1]; 10 mg/kg QD, 1 day, IP",0/3
same,% Cured,"[1]; 10 mg/kg QD, 4 days, PO",100%
same,Avg. Days Parasite-Free,"[1]; 10 mg/kg QD, 4 days, PO",>30 days
same,Cured/Total,"[1]; 10 mg/kg QD, 4 days, PO",5/5
same,% Cured,"[1]; 25 mg/kg QD, 1 day, IP",100%
same,Avg. Days Parasite-Free,"[1]; 25 mg/kg QD, 1 day, IP",>30 days
same,Cured/Total,"[1]; 25 mg/kg QD, 1 day, IP",3/3
same,% Cured,"[1]; 25 mg/kg QD, 1 day, PO",33%
same,Avg. Days Parasite-Free,"[1]; 25 mg/kg QD, 1 day, PO",8.3 days
same,Cured/Total,"[1]; 25 mg/kg QD, 1 day, PO",1/3
same,AQ (absorption quotient),[2]; calculated from Papp with and without GF120918,0.09
same,P-gp substrate status,[2]; from AQ,not a P-gp substrate
same,"Papp A→B at 1 h, 3 µM","[3]; MDCK-MDR1, with GF120918 2 µM, in presence of P-gp inhibitor GF120918 (2 µM), read-out: Papp A→B + GF120918",85.3 ×10⁻⁶ cm/s
same,"Papp A→B at 1 h, 3 µM","[3]; MDCK-MDR1, apical to basolateral, 3 µM (1.1 µg/mL), 1 h, read-out: Papp A→B",77.6 ×10⁻⁶ cm/s
same,binding to or inhibition of off-target panel,>100 biochemical targets,"did not exhibit any significant binding to, or inhibition of"
